From US4871745A, “2- or 3-aryl substituted imidazo(1,2-A)pyridines and their use as antisecretory agents” (Ortho Pharmaceutical Corporation, priority 1988, dated 1989)

Key:
gastric acid secretion = assay: Antisecretory activity: gastric acid secretion in pylorus-ligated rats; assay type: in vivo, male Charles River Sprague Dawley derived rats; settings: Rattus norvegicus, intraduodenal or s.c., 4 h after ligation, acid output compared to control, read-out: % Acid Secreted
Procedure: The antisecretory activity of the above compounds was determined by measuring gastric acid secretion using pylorus ligation in a modification of the procedure of Shay et al., Gastroenterology 26, 906 (1954). Basically, male Charles River Sprague Dawley derived rats weighing 150-300 grams were deprived of food but not water for 18-24 hours prior to use. Water was withheld during the experiment, however. The rats were weighed, anesthesized with ether and the pylorus ligated according to the method of Shay et al., supra. Treatment or vehicle control was then administered intraduodenally (i.d.) or subcutaneously (s.c.). Rats were housed two/cage and sacrificed with CO2 four hours after ligation. The stomachs were removed, rinsed, and contents emptied into a graduated centrifuge tube. The tubes were centrifuged, the volume of gastric juice recorded, and any samples obviously contamined by feces, food or blood were eliminated. A 1 ml aliquot of gastric juice was titrated with 0.1N NaOH to a pH of 7.0-7.4. The volume of gastric juice secreted, the acid concentration, and the product of the volume times the concentration, i.e., the total amount of acid secreted, were measured.

[1] = test system: calcium dependent smooth muscle contraction (trachealis muscle tissue); assay: Inhibition of calcium dependent smooth muscle contraction (tracheal rings, KCl challenge); assay type: cell-based, dogs; settings: Canis lupus familiaris, 10 μM test compound for 10 min, dog tracheal rings, 30 min, 37° C.
Procedure: (§1) The calcium channel blocking activity of the above compounds was determined by measuring (A) the inhibition of calcium dependent smooth muscle contraction and (B) inhibition of nitrendipine binding as follows.
(A) Trachea from dogs sacrificed by excess KCl injection were stored overnight at 4° C. in oxygenated Krebs-Henseleit buffer. Tracheal rings, one cartilage segment wide (5-10 mm) were cut starting from the bronchial end. After cutting the cartilage, the trachealis muscle tissue was suspended in oxygenated Krebs-Henseleit buffer at 37° C. in a 25 ml tissue bath. After a 60 minute equilibration period, the tissues were challenged with 10 μM carbachol. After five minutes, the tissues were rinsed and allowed to rest 50 minutes. The tissues were then challened with 50 mM KCl and, after 30 minutes, the contracts were quantitated. The tissues were then rinsed and re-equilibrated for 50 minutes. Test compounds were then added at 10 μM for 10 minutes, and the tissues were rechallenged with 40 mM KCl.
The percent inhibition of smooth muscle contraction was calculated from response data before and after drug treatment. [formula]

[2] = test system: quadriceps femoris muscle of one hind leg; assay: Local anesthetic activity: impaired ability of mice to grasp inverted screen after injection into quadriceps femoris muscle; assay type: in vivo, male albino overnight-fasted mice; settings: Mus musculus, im, 5 min; overnight-fasted mice; 0.05 ml solution or suspension (w/v) injected into quadriceps femoris muscle of one hind leg; observed 5 min later; read-out: Concentration (in %) of Compound Causing Local Anesthetic Activity
Procedure: The local anesthetic activity of the above compounds was tested as follows.
The test compounds were dissolved or suspended in a 0.5% aqueous methylcellulose solution containing 0.4% (v/v) of Tween 80, The polyoxyethylene derivative of a sorbitan ester. Doses of up to 100 mg/kg were administered orally by gagvage tube to groups of three male albino overnight-fasted mice (18 to 24 g) which were observed intermittently for one hour. The mice were gently restrained and 0.05 ml of a 1% (w/v) solution or suspension of the test compound was injected into the quadriceps femoris muscle of one hind leg. Five minutes later, the mice were individually placed on a wire mesh screen. The wire mesh screen was then inverted. […] The response to the test compounds was compared to a similarly treated vehicle control group of mice.

[3] = target: T1, calcium channel (nitrendipine binding) (Oryctolagus cuniculus, UniProt P15381); assay: Inhibition of 3H-nitrendipine binding (heart membranes), calcium channel blocking activity; set-up: species or system female New Zealand white rabbits; settings: 3H-nitrendipine 0.05-0.50 nM; rabbit heart membranes; 90 min at 4° C.; pH 7.4; read-out: B: IC50 (inhibition of nitrendipine binding)
T1 construct: the heart was immediately removed, cleaned and chopped into small pieces; from tissue; host or cells: rabbit heart, crude membrane pellet (42,000×g)
T1 sequence (P15381 whole entry, other chains not shown): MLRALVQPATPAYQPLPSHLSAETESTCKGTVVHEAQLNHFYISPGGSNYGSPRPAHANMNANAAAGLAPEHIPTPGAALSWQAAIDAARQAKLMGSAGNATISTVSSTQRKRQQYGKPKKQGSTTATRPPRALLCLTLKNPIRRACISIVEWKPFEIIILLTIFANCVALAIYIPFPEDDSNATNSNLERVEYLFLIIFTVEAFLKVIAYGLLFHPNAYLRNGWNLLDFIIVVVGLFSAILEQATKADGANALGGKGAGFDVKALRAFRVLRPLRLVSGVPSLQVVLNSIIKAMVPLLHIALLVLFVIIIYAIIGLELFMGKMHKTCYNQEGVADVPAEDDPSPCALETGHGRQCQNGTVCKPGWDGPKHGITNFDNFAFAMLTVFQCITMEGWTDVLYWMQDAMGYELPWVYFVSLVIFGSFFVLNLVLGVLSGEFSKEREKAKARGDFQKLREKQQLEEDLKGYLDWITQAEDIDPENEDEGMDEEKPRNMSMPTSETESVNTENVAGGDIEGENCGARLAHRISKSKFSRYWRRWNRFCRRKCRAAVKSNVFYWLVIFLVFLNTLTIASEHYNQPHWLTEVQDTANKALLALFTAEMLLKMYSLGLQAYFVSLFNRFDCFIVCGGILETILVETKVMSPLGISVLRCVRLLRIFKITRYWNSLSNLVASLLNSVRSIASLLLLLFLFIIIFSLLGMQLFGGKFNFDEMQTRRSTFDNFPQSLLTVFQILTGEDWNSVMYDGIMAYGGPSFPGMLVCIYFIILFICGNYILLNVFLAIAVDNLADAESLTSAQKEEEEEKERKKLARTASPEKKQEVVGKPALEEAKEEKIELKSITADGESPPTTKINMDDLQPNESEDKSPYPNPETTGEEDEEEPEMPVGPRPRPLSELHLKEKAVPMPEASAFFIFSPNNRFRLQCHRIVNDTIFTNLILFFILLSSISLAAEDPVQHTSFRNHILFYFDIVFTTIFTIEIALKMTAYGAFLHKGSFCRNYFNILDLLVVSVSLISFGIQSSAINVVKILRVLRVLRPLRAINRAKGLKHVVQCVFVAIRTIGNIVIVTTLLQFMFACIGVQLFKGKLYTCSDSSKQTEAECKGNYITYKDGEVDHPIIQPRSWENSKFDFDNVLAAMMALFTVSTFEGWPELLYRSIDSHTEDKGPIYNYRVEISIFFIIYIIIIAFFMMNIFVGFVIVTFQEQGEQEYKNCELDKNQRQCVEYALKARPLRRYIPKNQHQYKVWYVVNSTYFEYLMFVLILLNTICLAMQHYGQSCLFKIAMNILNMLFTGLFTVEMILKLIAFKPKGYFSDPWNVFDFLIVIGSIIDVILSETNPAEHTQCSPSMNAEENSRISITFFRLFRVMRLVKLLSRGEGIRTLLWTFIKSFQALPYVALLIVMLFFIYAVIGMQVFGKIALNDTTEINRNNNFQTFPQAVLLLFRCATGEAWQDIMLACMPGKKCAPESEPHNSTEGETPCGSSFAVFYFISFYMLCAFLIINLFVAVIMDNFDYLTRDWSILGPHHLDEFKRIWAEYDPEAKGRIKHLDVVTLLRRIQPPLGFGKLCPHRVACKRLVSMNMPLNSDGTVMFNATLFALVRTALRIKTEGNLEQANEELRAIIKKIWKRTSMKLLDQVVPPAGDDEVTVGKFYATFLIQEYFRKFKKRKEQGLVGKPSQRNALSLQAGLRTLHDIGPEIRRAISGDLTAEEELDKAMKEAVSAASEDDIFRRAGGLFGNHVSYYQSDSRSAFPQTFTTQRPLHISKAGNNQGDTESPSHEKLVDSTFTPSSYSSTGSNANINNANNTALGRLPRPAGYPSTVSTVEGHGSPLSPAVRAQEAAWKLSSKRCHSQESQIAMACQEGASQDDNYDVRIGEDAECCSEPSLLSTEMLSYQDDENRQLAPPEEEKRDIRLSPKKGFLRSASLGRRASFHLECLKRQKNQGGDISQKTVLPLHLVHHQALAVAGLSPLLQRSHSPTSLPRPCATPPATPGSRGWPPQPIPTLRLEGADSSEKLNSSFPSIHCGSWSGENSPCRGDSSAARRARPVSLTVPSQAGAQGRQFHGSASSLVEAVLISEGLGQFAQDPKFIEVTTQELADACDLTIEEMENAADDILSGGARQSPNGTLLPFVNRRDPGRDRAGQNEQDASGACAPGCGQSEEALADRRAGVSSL
T1 sequence (P13806 27-960 partner limits assumed, other chains not shown): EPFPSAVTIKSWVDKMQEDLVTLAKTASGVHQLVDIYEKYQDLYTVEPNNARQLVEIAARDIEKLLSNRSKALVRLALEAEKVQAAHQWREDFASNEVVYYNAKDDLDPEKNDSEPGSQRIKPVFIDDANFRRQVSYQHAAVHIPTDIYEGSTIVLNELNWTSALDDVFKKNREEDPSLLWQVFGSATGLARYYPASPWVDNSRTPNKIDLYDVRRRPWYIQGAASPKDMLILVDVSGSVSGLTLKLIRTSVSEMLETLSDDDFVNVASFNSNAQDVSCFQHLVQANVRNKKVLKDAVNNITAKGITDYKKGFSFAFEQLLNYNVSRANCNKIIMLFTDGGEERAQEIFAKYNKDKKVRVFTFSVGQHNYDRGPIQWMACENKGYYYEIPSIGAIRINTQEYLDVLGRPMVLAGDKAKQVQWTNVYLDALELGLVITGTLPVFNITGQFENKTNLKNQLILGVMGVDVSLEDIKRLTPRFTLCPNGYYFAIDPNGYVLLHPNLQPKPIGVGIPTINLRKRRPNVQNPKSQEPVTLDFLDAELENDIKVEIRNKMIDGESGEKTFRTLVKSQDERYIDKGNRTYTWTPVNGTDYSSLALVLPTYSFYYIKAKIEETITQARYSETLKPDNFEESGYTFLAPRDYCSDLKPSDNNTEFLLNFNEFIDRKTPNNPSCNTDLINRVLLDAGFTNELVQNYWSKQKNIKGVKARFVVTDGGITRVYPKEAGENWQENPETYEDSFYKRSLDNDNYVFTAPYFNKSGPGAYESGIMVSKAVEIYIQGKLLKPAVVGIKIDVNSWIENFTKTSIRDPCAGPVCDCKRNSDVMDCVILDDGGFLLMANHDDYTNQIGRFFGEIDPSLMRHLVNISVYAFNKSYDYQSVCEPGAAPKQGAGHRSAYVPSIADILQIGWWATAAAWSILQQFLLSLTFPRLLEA
T1 sequence (P13806 961-1106 partner limits assumed, other chains not shown): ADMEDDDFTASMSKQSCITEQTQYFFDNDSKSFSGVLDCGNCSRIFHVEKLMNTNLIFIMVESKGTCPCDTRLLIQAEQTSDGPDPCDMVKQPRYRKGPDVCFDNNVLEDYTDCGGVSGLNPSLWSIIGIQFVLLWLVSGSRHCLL
Procedure: as §1
(B) The inhibition of nitrendipine binding was determined by following the procedures of Bolger et al., Biochem. Biophys. Res. Comm. 104, 1604 (1982) and Ehlert et al., Life Sciences 30, 2191 (1982). Basically, female New Zealand white rabbits (1-2 kg) were sacrificed by cervical dislocation, and the heart was immediately removed, cleaned and chopped into small pieces. The tissue was homogenized in 5× volume of 0.05M Hepes buffer, pH 7.4. The homogenate was centrifuged at 400×g for 10 minutes; the supernatant was recentrifuged at 42,000×g for 90 minutes. The resulting membrane pellet was resuspended (0.7 ml/g weight) in 0.05M Hepes, pH 7.4, and stored at -70° C. until used. Each tube of the binding assay contained ^3 H-nitrendipine (0.05-0.50 nM), buffer, membranes (0.10 ml), and test compound in a total volume of 1.0 ml. After 90 minutes at 4° C., the bound nitrendipine was separated from the unbound by filtration to Whatman GF/C fibers. After rinsing, the filters were dried and counted in a liquid scintillation counter.
Non-specific binding of ^3 H-nitrendipine (that amount bound in the presence of excess unlabelled nitrendipine) was subtracted from the total bound to obtain specifically bound radiolabeled nitrendipine. The amount of specifically bound nitrendipine in the presence of a test compound was compared to that amount bound in the absence of a compound. A percent displacement (or inhibition) was then obtained.

| Compound | IC50 [3] | change in vivo at 20 mg/kg (gastric acid secretion) | inhibition at 10 µM [1] | minimal effective concentration [2] | change in vivo at 40 mg/kg (gastric acid secretion; 40 mg/kg) |
| --- | --- | --- | --- | --- | --- |
| CCCCN(CCCC)CCCOc1ccc(-c2cn3ccccc3n2)cc1 [Example 1, 2-(4-Dibutylaminopropoxyphenyl)imidazo[1,2-a]pyridine] | 2700 nM | -41% | 54% | 1000 µg/mL | – |
| CCCCN(CCCC)CCCOc1ccc(-c2nc3c(C)cccn3c2C)cc1 [Example 7, 2-(4-Dibutylaminopropoxyphenyl)-3,8-dimethylimidazo[1,2-a]pyridine] | 1900 nM | -54% | 27% | 1000 µg/mL | – |
| CCCCN(CCCC)CCCOc1ccc(C(=O)c2cnc3c(C)cccn23)cc1 [Example 13, 3-(4-Dibutylaminopropoxybenzoyl)-8-methylimidazo[1,2-a]pyridine] | 530 nM | – | 56% | 1000 µg/mL | -49% |
| CCCCN(CCCC)CCCOc1ccc(-c2cn3cccc(OCc4ccccc4)c3n2)cc1 [Example 6, 2-(4-Dibutylaminopropoxyphenyl)-8-benzloxyimidazo[1,2-a]pyridine] | > 8000 nM | -16% | 35% | 1000 µg/mL | – |
| CCCCN(CCCC)CCCOc1ccc(-c2cn3cccc(O)c3n2)cc1 [Example 5, 2-(4-Dibutylaminopropoxyphenyl)-8-hydroxyimidazo[1,2-a]pyridine] | – | – | – | 10000 µg/mL | – |
| CCCCN(CCCC)CCCOc1ccc(-c2cn3ccc(C)cc3n2)cc1 [Example 4, 2-(4-Dibutylaminopropoxyphenyl)-7-methylimidazo[1,2-a]pyridine] | 6000 nM | – | 46% | 1000 µg/mL | – |
| CCCCN(CCCC)CCCOc1ccc(-c2cn3cccc(C)c3n2)cc1 [Example 2, 2-(4-Dibutylaminopropoxyphenyl)-8-methylimidazo[1,2-a]pyridine] | 600 nM | -91% | 61% | 10 µg/mL | – |

Second part, led by results:

| IC50 [3] | Compound | change in vivo at 20 mg/kg (gastric acid secretion) | inhibition at 10 µM [1] | minimal effective concentration [2] | change in vivo at 40 mg/kg (gastric acid secretion; 40 mg/kg) |
| --- | --- | --- | --- | --- | --- |
| 1600 nM | CCCCN(CCCC)CCCOc1ccc(C(=O)c2cn3ccc(C)cc3n2)cc1 [Example 10, 2-(4-Dibutylaminopropoxybenzoyl)-7-methylimidazo[1,2-a]pyridine] | – | 42% | 10000 µg/mL | – |
| 2200 nM | CCCCN(CCCC)CCCOc1ccc(C(=O)c2cn3c(C)cc(C)cc3n2)cc1 [Example 9, 2-(4-Dibutylaminopropoxybenzoyl)-5,7-dimethylimidazo[1,2-a]pyridine] | -27% | 39% | 10000 µg/mL | – |
| 2300 nM | CCCCN(CCCC)CCCOc1ccc(C(=O)c2cn3cccc(OCc4ccccc4)c3n2)cc1 [Example 11, 2-(4-Dibutylaminopropoxybenzoyl)-8-benzyloxyimidazo[1,2-]pyridine] | – | 18% | 1000 µg/mL | – |
| 3000 nM | CCCCN(CCCC)CCCOc1ccc(C(=O)c2cn3cc(Br)ccc3n2)cc1 [Example 12] | – | – | 10000 µg/mL | – |
| 200 nM | CCCCN(CCCC)CCCOc1ccc(C(=O)c2cnc3ccc(Br)cn23)cc1 [Example 14, 3-(4-Dibutylaminopropoxybenzoyl)-6-bromoimidazo[1,2-a]pyridine] | -18% | 62% | 1000 µg/mL | – |
| 600 nM | CCCCN(CCCC)CCCOc1ccc(C(=O)c2cn3cccc(C)c3n2)cc1 [Example 8, 2-(4-Dibutylaminopropoxybenzoyl)-8-methylimidazo[1,2-a]pyridine] | -27% | 58% | 10000 µg/mL | – |
| 2500 nM | CCCCN(CCCC)CCCOc1ccc(-c2cn3cc(Br)ccc3n2)cc1 [Example 3, 2-(4-Dibutylaminopropoxyphenyl)-6-bromoimidazo[1,2-a]pyridine] | -18% | 32% | 10000 µg/mL | – |
